Measured values: patent US20090123488A1, “Compositions and methods for the treatment and prophylaxis of Alzheimer's disease” (priority 2006, published 2009)

Legend:
amyloid-β = settings: mice, alum adjuvant, five boosts (Agadjanyan et al 2005); cited from earlier work
Aβ40 = settings: immunized mice (Agadjanyan et al 2005); cited from earlier work
synthetic Aβ40 = experiment: Effect of booster doses: mouse serums titered on synthetic Aβ40; format: in vivo; settings: three mice
Method: After immunizations with the immunogens of Example 1, serums were assayed to determine anti-Aβ peptide titers by conventional ELISA methods. […] After thorough washing with 0.1% triton X 100 buffer, blocking with 1% bovine serum albumin (BSA) and rewashing, serum dilutions were applied and incubated at 22° C. for 1 hour. After incubation, the plates were thoroughly washed with triton-X 100 buffer again and 1/10,000 goat anti-mouse IgG-horseradish peroxidase (HRP) conjugate (or the appropriate reagent for rat or rabbit) was applied. The plates were then incubated for 1 hour at 22° C. then washed thoroughly and developed with ABTS for 45 minutes at room temperature on a shaker table. Absorbance was measured at 405 nm. Control wells containing 1/60000 normal mouse serum were measured; and the reciprocal of the […] dilution of test serums with an OD greater than the mean+8 SDs of controls was taken as the titer.
In an experiment to determine the effect of booster dosages, three mice were immunized with experimental immunogen, Pam2C-SSQYIKANSKFIGITELDAEFRHDSGYEVHHQ-amide (SEQ ID NO: 13) in a protocol of a 1 mg intraperitoneal (IP) priming dose at Day 0, followed by a 1 mg IP booster at Week 3, and a 1 mg IP second booster at Week 6. Mice were bled at weeks 5 and 8. The serums are titered on synthetic Aβ40. […]

Aβ40, sequence (P05067 672-711): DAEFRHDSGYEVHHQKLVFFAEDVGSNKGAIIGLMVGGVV

Substance: Aβ33-MAP: Aβ33 synthesized as a multiple antigenic peptide (Agadjanyan et al 2005)
- maximal titer (amyloid-β): 64,000
- T cell response to Aβ40 (Aβ40): demonstrable T cell response

Substance: Pam2C-SSQYIKANSKFIGITELDAEFRHDSGYEVHHQ-amide [Pam2-QYIK-AB1-15]
- GMT at 5 weeks (synthetic Aβ40; 1 mg IP Day 0, boosters Week 3 and Week 6, bled week 5): 3 million
- GMT at 8 weeks (synthetic Aβ40; 1 mg IP Day 0, boosters Week 3 and Week 6, bled week 8): 8 million
